Laboratory results published in ChEMBL document CHEMBL1130921, “The cholesterol metabolite cholest-4-en-3-one and its 3-oxo derivatives suppress body weight gain, body fat accumulation and serum lipid concentration in mice” (Bioorg Med Chem Lett, 1998).

Columns and labels:
Mus musculus [1] = organism: Mus musculus; assay: Evaluated for potency in CDF1 mice and the ability of it to decrease feed consumption was determined; assay type: functional
Mus musculus [2] = organism: Mus musculus; assay: Evaluated for potency in CDF1 mice and the inhibition of body weight gain was determined; assay type: functional
Mus musculus [3] = organism: Mus musculus; assay: Compound was evaluated for its potency in CDF1 mice and the serum metabolite levels were determined; assay type: ADME, organism-based
Mus musculus [4] = organism: Mus musculus; assay: Compound was evaluated for its potency in CDF1 mice and the serum triglyceride levels were determined; assay type: ADME, organism-based
Mus musculus [5] = organism: Mus musculus; assay: Feed efficiency was calculated by dividing body weight gain by feed consumption in mouse; assay type: functional
Mus musculus [6] = organism: Mus musculus; assay: Compound was evaluated for its potency in CDF1 mice and the serum cholesterol levels were determined; assay type: ADME, organism-based
Mus musculus [7] = organism: Mus musculus; assay: Compound was evaluated for its potency in CDF1 mice and the abdominal fat weight was determined.; assay type: functional, Abdomen
Mus musculus [8] = organism: Mus musculus; assay: Compound was evaluated for its potency in CDF1 mice and the abdominal fat weight was determined; assay type: functional, Abdomen

Compound	Feed consumption (Mus musculus [1]) [g/day]	Body weight gain (Mus musculus [2]) [g/day]	Serum metabolite (Mus musculus [3]) [mg/dL]	Serum triglyceride (Mus musculus [4]) [mg/dL]	Feed efficiency (Mus musculus [5])	Serum cholesterol (Mus musculus [6]) [mg/dL]	Abdominal fat (Mus musculus [7]) [g]	Abdominal fat (Mus musculus [8]) [g]
CC(C)CCC[C@@H](C)[C@H]1CC[C@H]2[C@@H]3C=CC4=CC(=O)C=C[C@]4(C)[C@H]3CC[C@]12C	5.41	0.27	0	390.4	0.05	206.3	–	–
CC(C)CCC[C@@H](C)[C@H]1CC[C@H]2[C@@H]3C[C@@H](O)C4=CC(=O)CC[C@]4(C)[C@H]3CC[C@]12C	5.7	0.28	0	120	0.05	136.7	0.8	–
CCCCCCCCC(=O)OC1CC[C@@]2(C)C(=CC[C@H]3[C@@H]4CC[C@H]([C@H](C)CCCC(C)C)[C@@]4(C)CC[C@@H]32)C1 (some centres undefined)	5.28	0.52	–	–	0.1	–	–	–
CC(C)CCC[C@@H](C)[C@H]1CC[C@H]2[C@@H]3CC(=O)C4=CC(=O)CC[C@]4(C)[C@H]3CC[C@]12C	6	-0.36	0	133.6	-0.06	110	0.3	–
CC(C)CCC[C@@H](C)[C@H]1CC[C@H]2[C@@H]3CC=C4C=C(N5CCCC5)CC[C@]4(C)[C@H]3CC[C@]12C	6.1	-0.18	22	277.7	-0.03	158.1	0.41	–
CC[C@H](CC[C@@H](C)[C@H]1CC[C@H]2[C@@H]3CCC4CC(O)CC[C@]4(C)[C@H]3CC[C@]12C)C(C)C (some centres undefined)	5.43	0.49	–	–	0.09	–	–	–
CC(C)CCC[C@@H](C)[C@H]1CC[C@H]2[C@@H]3C[C@H](O)[C@]4(O)CC(=O)CC[C@]4(C)[C@H]3CC[C@]12C	5.39	0.58	–	–	0.11	–	–	–
CC[C@H](/C=C/[C@@H](C)[C@H]1CC[C@H]2[C@@H]3CC=C4CC(=O)CC[C@]4(C)[C@H]3CC[C@]12C)C(C)C	6.37	0.52	–	–	0.08	–	–	–
CC(C)CCC[C@@H](C)[C@H]1CC[C@H]2[C@@H]3CC[C@H]4CC(O)CC[C@]4(C)[C@H]3CC[C@]12C (some centres undefined)	5.45	0.38	23	212.7	0.07	148.1	0.9	–
CC(C)CCC[C@@H](C)[C@H]1CC[C@H]2[C@@H]3CC=C4CC(OC(=O)c5ccccc5)CC[C@]4(C)[C@H]3CC[C@]12C (some centres undefined)	5.57	0.46	–	–	0.08	–	–	–
CC(C)CCC[C@@H](C)[C@H]1CC[C@H]2[C@@H]3CC[C@@]45O[C@@H]4C(=O)CC[C@]5(C)[C@H]3CC[C@]12C	6.14	0.46	0	218	0.08	141.6	1.12	–
CC(=O)OC1=CC2=CC[C@H]3[C@@H]4CC[C@H]([C@H](C)CCCC(C)C)[C@@]4(C)CC[C@@H]3[C@@]2(C)CC1	5.64	0.33	22	119.9	0.06	187.5	1.03	–
CC(C)CCC[C@@H](C)[C@H]1CC[C@H]2[C@@H]3CCC4=C(CSc5ccccc5)C(=O)CC[C@]4(C)[C@H]3CC[C@]12C	6.23	0.56	–	–	0.09	–	–	–
CC[C@H](CC[C@@H](C)[C@H]1CC[C@H]2[C@@H]3CCC4=CC(=O)CC[C@]4(C)[C@H]3CC[C@]12C)C(C)C	4.94	0.4	0	188.3	0.08	164.6	1	–
CC[C@H](/C=C/[C@@H](C)[C@H]1CC[C@H]2[C@@H]3CC=C4CC(O)CC[C@]4(C)[C@H]3CC[C@]12C)C(C)C (some centres undefined)	6.3	0.57	–	–	0.09	–	–	–
CC(C)CCC[C@@H](C)[C@H]1CC[C@H]2[C@@H]3C=CC4=CC(=O)CC[C@]4(C)[C@H]3CC[C@]12C	4.71	0.32	22	172.6	0.07	112.7	0.9	–
CC(=O)OC1CC[C@@]2(C)C(=CC[C@H]3[C@@H]4CC[C@H]([C@H](C)CCCC(C)C)[C@@]4(C)CC[C@@H]32)C1 (some centres undefined)	5.28	0.52	–	–	0.1	–	–	–
CC(C)CCC[C@@H](C)[C@H]1CC[C@H]2[C@@H]3CC=C4CCCC[C@]4(C)[C@H]3CC[C@]12C	6.95	0.56	0	253.6	0.08	165.8	–	–
CC(C)CCC[C@@H](C)[C@H]1CC[C@H]2[C@@H]3CCC4C[C@@H](O)CC[C@]4(C)[C@H]3CC[C@]12C (some centres undefined)	5.83	0.52	–	–	0.09	–	–	–
CC(C)CCC[C@@H](C)[C@H]1CC[C@H]2[C@@H]3CCC4CC(O)CC[C@]4(C)[C@H]3CC[C@]12C (some centres undefined)	6.48	0.58	–	–	0.09	–	–	–
CC(C)CCC[C@@H](C)[C@H]1CC[C@H]2[C@@H]3CC[C@@H]4CC(=O)CC[C@]4(C)[C@H]3CC[C@]12C	5.39	0.5	22	291.2	0.09	161.3	1.25	–
CC(C)CCC[C@@H](C)[C@H]1CC[C@H]2[C@@H]3C[C@H](Br)[C@]4(Br)CC(=O)CC[C@]4(C)[C@H]3CC[C@]12C	5.72	0.43	–	–	0.08	–	–	–
CC(C)CCC[C@@H](C)[C@H]1CC[C@H]2[C@@H]3CCC4=C(Br)C(=O)CC[C@]4(C)[C@H]3CC[C@]12C	6.58	0.52	–	–	0.08	–	–	–
CC(C)CCC[C@@H](C)[C@H]1CC[C@H]2[C@@H]3CC[C@@H]4CC(O)CC[C@]4(C)[C@H]3CC[C@]12C (some centres undefined)	6.1	0.55	–	–	0.09	–	–	–
CC(C)CCC[C@@H](C)[C@H]1CC[C@H]2[C@@H]3CCC4=CC(=O)C=C[C@]4(C)[C@H]3CC[C@]12C	4.94	0.15	0	266.9	0.03	165.4	0.61	–
CC(C)CCC[C@@H](C)[C@H]1CC[C@H]2[C@@H]3C[C@H](Br)C4=CC(=O)CC[C@]4(C)[C@H]3CC[C@]12C	4.2	0.26	22	257.3	0.06	176.8	0.81	–
CC(C)CCC[C@@H](C)[C@H]1CC[C@H]2[C@@H]3CCC4=CC(=O)CC[C@]4(C)[C@H]3CC[C@]12C [4-CHOLESTEN 3-ONE]	5.43	0.35	22	218.3	0.06	115.8	–	0.68
CC(C)CCC[C@@H](C)[C@H]1CC[C@H]2[C@@H]3CC=C4CC(=O)CC[C@]4(C)[C@H]3CC[C@]12C [CHOLEST-5-EN-3-ONE]	3.62	-0.1	0	87.5	0.03	122.1	0.48	–
CC(C)CCC[C@@H](C)[C@H]1CC[C@H]2[C@@H]3CC[C@H]4CC(=O)CC[C@]4(C)[C@H]3CC[C@]12C [CHOLESTAN-3-ONE]	4.6	0.28	23	201.7	0.06	134.1	0.92	–
